Assay [1] has as its system Hepatitis C virus. Briefly: Antiviral activity against HCV replication in human hepatoma cells by replicon assay. The class given is functional, Hepacivirus hominis. (In antiviral work, replicon cells carry a viral genome segment that copies itself.)
Assay [2] in a line: Binding affinity to HCV NS3 protease by spectrophotometry. Also noted: species or system Hepacivirus hominis.

Data on 30 molecules can be found in ChEMBL document CHEMBL1138483, “Toward second generation hepatitis C virus NS3 serine protease inhibitors: discovery of novel P4 modified analogues with improved potency and pharmacokinetic profile” (J Med Chem, 2009).

Usually EC90 stands for the concentration needed for an effect of 90%. Low values mean an effect from little substance, high ones a need for much substance. One may read the Ki as a dissociation constant, usually derived from enzyme kinetics or from competition with a known ligand. The low end stands for a stronger hold on the target, the high end for a looser hold on the target.

Each structure is given as a SMILES string.

Molecule `C=CCNC(=O)C(=O)C(CCC)NC(=O)[C@@H]1[C@@H]2[C@H](CN1C(=O)[C@@H](NC(=O)N[C@H](COC(=O)NCC)C(C)(C)C)C1(C)CCCCC1)C2(C)C` (stereo partly specified) displayed a 90% effect concentration (EC90) in assay [1] of 150 nM. Besides, the Ki in assay [2] is 28 nM.

Consider `CCNC(=O)OC[C@@H](NC(=O)N[C@H](C(=O)N1C[C@H]2[C@@H]([C@H]1C(=O)NC(CC1CCC1)C(=O)C(N)=O)C2(C)C)C1(C)CCCCC1)C(C)(C)C` (stereo partly specified), for which, in assay [1], the EC90 came to 150 nM. Further, the Ki in assay [2] came to 8 nM. In turn, `COC[C@@H](NC(=O)N[C@H](C(=O)N1C[C@H]2[C@@H]([C@H]1C(=O)NC(CC1CCC1)C(=O)C(N)=O)C2(C)C)C(C)(C)C)C(C)(C)C` (stereo partly specified) came in with a Ki in assay [2] of 120 nM. Molecule `CN(C)C(=O)OC[C@@H](NC(=O)N[C@H](C(=O)N1C[C@H]2[C@@H]([C@H]1C(=O)NC(CC1CCC1)C(=O)C(N)=O)C2(C)C)C1Cc2ccccc2C1)C(C)(C)C` (stereo partly specified) gave a 90% effect concentration (EC90) in assay [1] of 300 nM. In assay [2], this molecule yielded a Ki of 23 nM. For `CCNC(=O)OC[C@@H](NC(=O)N[C@H](C(=O)N1C[C@H]2[C@@H]([C@H]1C(=O)NC(CC1CCC1)C(=O)C(N)=O)C2(C)C)C(C)(C)C)C(C)(C)C` (stereo partly specified) the same measures were 250 nM and 9 nM. Molecule `COC[C@@H](NC(=O)N[C@H](C(=O)N1C[C@H]2[C@@H]([C@H]1C(=O)NC(CC1CCC1)C(=O)C(N)=O)C2(C)C)C1CCCCC1)C(C)(C)C` (stereo partly specified) yielded a concentration for an effect of 90% (EC90) in assay [1] of 300 nM. The molecule also yielded a Ki in assay [2] of 30 nM. The corresponding values for `CC(C)NC(=O)OC[C@@H](NC(=O)N[C@H](C(=O)N1C[C@H]2[C@@H]([C@H]1C(=O)NC(CC1CCC1)C(=O)C(N)=O)C2(C)C)C1Cc2ccccc2C1)C(C)(C)C` (stereo partly specified) are 200 nM and 9 nM.

With `C=CCNC(=O)C(=O)C(CCC)NC(=O)[C@@H]1[C@@H]2[C@H](CN1C(=O)[C@@H](NC(=O)NC1(COC(=O)NCC)CCCCC1)C1(C)CCCCC1)C2(C)C` (stereo partly specified), the 90% effect level in assay [1] (EC90) was put at 700 nM. This molecule yielded an inhibition constant Ki in assay [2] of 210 nM.

On to `CCNC(=O)OC[C@@H](NC(=O)N[C@H](C(=O)N1C[C@H]2[C@@H]([C@H]1C(=O)NC(CC1CCC1)C(=O)C(N)=O)C2(C)C)C1CCCCC1)C(C)(C)C` (stereo partly specified), for which the EC90 in assay [1] stood at 600 nM. Further, the inhibitory constant (Ki) in assay [2] is 10 nM. As for `COC[C@@H](NC(=O)N[C@H](C(=O)N1C[C@H]2[C@@H]([C@H]1C(=O)NC(CC1CCC1)C(=O)C(N)=O)C2(C)C)C1(C)CCCCC1)C(C)C` (stereo partly specified), the 90% effect level in assay [1] (EC90) was put at 200 nM. Also, the Ki in assay [2] amounted to 12 nM. For `C#CCCC(NC(=O)[C@@H]1[C@@H]2[C@H](CN1C(=O)[C@@H](NC(=O)N[C@H](COC(=O)NCC)C1CCCCC1)C1(C)CCCCC1)C2(C)C)C(=O)C(=O)NCC=C` (stereo partly specified) the same measures were 200 nM and 13 nM. The corresponding values for `C=CCNC(=O)C(=O)C(CC1CC1)NC(=O)[C@@H]1[C@@H]2[C@H](CN1C(=O)[C@@H](NC(=O)N[C@H](COC(=O)NCC)C(C)(C)C)C1Cc3ccccc3C1)C2(C)C` (stereo partly specified) are 400 nM and 50 nM. The corresponding values for `C=CCNC(=O)C(=O)C(CCCC)NC(=O)[C@@H]1[C@@H]2[C@H](CN1C(=O)[C@@H](NC(=O)N[C@H](COC(=O)NCC)C(C)(C)C)C1Cc3ccccc3C1)C2(C)C` (stereo partly specified) are 400 nM and 23 nM.

Regarding `COC[C@@H](NC(=O)N[C@H](C(=O)N1C[C@H]2[C@@H]([C@H]1C(=O)NC(CC1CCC1)C(=O)C(N)=O)C2(C)C)C1(C)CCCC1)C(C)(C)C` (stereo partly specified), in assay [1], it took 400 nM to reach the 90% level (EC90). For the same molecule, the affinity in assay [2], expressed as Ki, was 22 nM. With `CC(C)(C)OCC1(NC(=O)N[C@H](C(=O)N2C[C@H]3[C@@H]([C@H]2C(=O)NC(CC2CCC2)C(=O)C(N)=O)C3(C)C)C2(C)CCCCC2)CCCCC1` (stereo partly specified), the inhibition constant Ki in assay [2] turned out to be 120 nM. `C#CCCC(NC(=O)[C@@H]1[C@@H]2[C@H](CN1C(=O)[C@@H](NC(=O)N[C@H](COC(=O)NCC)C(C)(C)C)C1Cc3ccccc3C1)C2(C)C)C(=O)C(=O)NCC=C` (stereo partly specified) yielded an EC90 in assay [1] of 550 nM. For the same molecule, the affinity in assay [2], expressed as Ki, was 10 nM. Molecule `COC[C@@](C)(CC(C)C)NC(=O)N[C@H](C(=O)N1C[C@H]2[C@@H]([C@H]1C(=O)NC(CC1CCC1)C(=O)C(N)=O)C2(C)C)C1(C)CCCCC1` (stereo partly specified) returned a Ki in assay [2] of 50 nM. `C=CCNC(=O)C(=O)C(CCC)NC(=O)[C@@H]1[C@@H]2[C@H](CN1C(=O)[C@@H](NC(=O)N[C@H](COC(=O)NCC1CCCCC1)C(C)(C)C)C1(C)CCCCC1)C2(C)C` (stereo partly specified) returned an inhibitory constant (Ki) in assay [2] of 130 nM. For `CC(C)(C)[C@H](NC(=O)N[C@H](COCc1ccccc1)C(C)(C)C)C(=O)N1C[C@H]2[C@@H]([C@H]1C(=O)NC(CC1CCC1)C(=O)C(N)=O)C2(C)C` (stereo partly specified), affinity in assay [2] was put at a Ki of 130 nM. With `C#CCCC(NC(=O)[C@@H]1[C@@H]2[C@H](CN1C(=O)[C@@H](NC(=O)N[C@H](COC(=O)NCC)C(C)(C)C)C1(C)CCCCC1)C2(C)C)C(=O)C(=O)NCCC` (stereo partly specified), it took 200 nM to reach the 90% level in assay [1] (EC90). The molecule further returned a Ki in assay [2] of 16 nM. Take `C=CCNC(=O)C(=O)C(CCC)NC(=O)[C@@H]1[C@@H]2[C@H](CN1C(=O)[C@@H](NC(=O)N[C@H](COC(=O)NCC1CC1)C(C)(C)C)C1(C)CCCCC1)C2(C)C` (stereo partly specified): the 90% effect concentration (EC90) in assay [1] amounted to 100 nM. Further, the affinity in assay [2] corresponds to a Ki of 32 nM. For `CC(C)(C)NC(=O)N[C@H](C(=O)N1C[C@H]2[C@@H]([C@H]1C(=O)NC(CC1CCC1)C(=O)C(N)=O)C2(C)C)C(C)(C)C` (stereo partly specified) [BOCEPREVIR] the same measures were 350 nM and 14 nM. In assay [2], `C=CCNC(=O)C(=O)C(CCC)NC(=O)[C@@H]1[C@@H]2[C@H](CN1C(=O)[C@@H](NC(=O)N[C@H](COC(=O)NCC)C1CCCCC1)C1(C)CCCCC1)C2(C)C` (stereo partly specified) gave an inhibition constant (Ki) of 84 nM. Turning to `COC[C@@H](NC(=O)N[C@H](C(=O)N1C[C@H]2[C@@H]([C@H]1C(=O)NC(CC1CCC1)C(=O)C(N)=O)C2(C)C)C1(C)CCCCC1)C(C)(C)C` (stereo partly specified), in assay [1], it took 150 nM to reach the 90% level (EC90). In addition, the affinity in assay [2] corresponds to a Ki of 24 nM. The corresponding values for `C=CCNC(=O)C(=O)C(CCCC)NC(=O)[C@@H]1[C@@H]2[C@H](CN1C(=O)[C@@H](NC(=O)N[C@H](COC(=O)NCC)C(C)(C)C)C1(C)CCCCC1)C2(C)C` (stereo partly specified) are 400 nM and 28 nM. In assay [2], `C=CCNC(=O)C(=O)C(CCC)NC(=O)[C@@H]1[C@@H]2[C@H](CN1C(=O)[C@@H](NC(=O)N[C@H](COC(=O)NCC(C)C)C(C)(C)C)C1(C)CCCCC1)C2(C)C` (stereo partly specified) returned an inhibitory constant (Ki) of 58 nM.

For the molecule `CCC[C@@](C)(COC)NC(=O)N[C@H](C(=O)N1C[C@H]2[C@@H]([C@H]1C(=O)NC(CC1CCC1)C(=O)C(N)=O)C2(C)C)C1(C)CCCCC1` (stereo partly specified), in assay [2], the inhibition constant Ki is 170 nM. Turning to `CC(C)(C)NC(=O)OC[C@@H](NC(=O)N[C@H](C(=O)N1C[C@H]2[C@@H]([C@H]1C(=O)NC(CC1CCC1)C(=O)C(N)=O)C2(C)C)C1Cc2ccccc2C1)C(C)(C)C` (stereo partly specified), the 90% effect concentration (EC90) in assay [1] was determined as 200 nM. The Ki in assay [2] turned out to be 12 nM. In assay [1], `C#CCCC(NC(=O)[C@@H]1[C@@H]2[C@H](CN1C(=O)[C@@H](NC(=O)NC1(COC(=O)NCC)CCCCC1)C1(C)CCCCC1)C2(C)C)C(=O)C(=O)NCC=C` (stereo partly specified) gave an EC90 of 600 nM. Besides, the inhibition constant Ki in assay [2] is 9 nM. `CC(C)(C)OC[C@@H](NC(=O)N[C@H](C(=O)N1C[C@H]2[C@@H]([C@H]1C(=O)NC(CC1CCC1)C(=O)C(N)=O)C2(C)C)C1(C)CCCCC1)C(C)(C)C` (stereo partly specified): in assay [2], the Ki turned out to be 100 nM.
